Earlier results as cited in US20090005340A1, “Bioactive Agents Produced By Submerged Cultivation of a Basidiomycete Cell” (MediMush A/S, priority 2005, published 2009).

Tested on: cytochrome P450s (CYPs)

Lentinan
expression of cytochrome P450s (CYPs): suppress the expression
